Assay results from patent US9150982B2, “Crystal form of (6S)-5-methyltetrahydrofolate salt and method for preparing same” (LIANYUNGANG JINKANG HEXIN PHARMACEUTICAL CO. LTD., priority 2012, dated 2015).
Read-outs that look alike come from different tables or passages of the source.

Conditions: in the air, 40° C., relative humidity 60%
Procedure: In order to determine the stability of the novel crystal form of the Form C of (6S)-5-MTHF calcium salt, the crystal form was placed in the air at a temperature of 40° C. and a relative humidity of 60%, and the content of remained (6S)-5-MTHF calcium salt was periodically measured.

Substance: (6S)-5-methyltetrahydrofolate calcium salt [Form C]
- Stability (overall result in words) (up to 9 days): good stability
- Appearance (storage 0 days): White crystal
- Content of remained (6S)-5-MTHF calcium salt (storage 0 days): 99.5%
- Appearance (storage 3 days): White crystal
- Content of remained (6S)-5-MTHF calcium salt (storage 3 days): 99.1%
- Appearance (storage 6 days): White crystal
- Content of remained (6S)-5-MTHF calcium salt (storage 6 days): 99.1%
- Appearance (storage 9 days): White crystal
- Content of remained (6S)-5-MTHF calcium salt (storage 9 days): 98.4%
